Measured values published in patent US9126999B2, “Tetrahydropyrazolopyrimidine compounds” (EISAI R&D MANAGEMENT CO., LTD., priority 2012, dated 2015).

Tested on: T1, Human TLR7/8
T1 construct: IC50; other: Hu PBMC; ligand RNA-Ig; analyte IP-10
Assay: Human PBMC cell-based assay, RNA-Ig (SL4-Ig) stimulus, cytokine ELISA
Conditions: Hu PBMC; ligand RNA-Ig; analyte IP-10
How it was run: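 Ficoll-isolated human PBMC treated in triplicate with antagonist (final 0.1% DMSO), then stimulated with RNA-Ig (SL4-Ig) complex preincubated 15-30 min. Incubation 20 h at 37° C., 5% CO2; supernatant cytokines quantified by ELISA.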

COc1ccc([C@@H]2C[C@H](C(F)(F)F)n3nc(-c4ccc(C(=O)N5CCNCC5)cc4)cc3N2)cc1OC [ER-892887, (4-((5S,7R)-5-(3,4-dimethoxyphenyl)-7-(trifluoromethyl)-4,5,6,7-tetrahydropyrazolo[1,5-a]pyrimidin-2-yl)phenyl)(piperazin-1-yl)methanone]
IC50: 45 nM
